Measurements published in PubChem BioAssay (NCI).
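Where inhibition never reached the appropriate level, the endpoint shown equals the highest concentration tested. Otherwise, values were interpolated linearly from a five-concentration, 48-hour dose response in 96-well plates. Here, GI50 denotes the concentration required for 50% inhibition of growth. At the TGI there is no net growth.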

Tested on: MDA-MB-468 breast
Test: NCI tumour cell line growth inhibition, 48 h

SMILES | GI50 [nM] | TGI [nM]
O=C(CCc1nnc2sc(-c3ccc(Cl)cc3Cl)nn12)c1nc2ncccc2[nH]1 | 2090 | 4410
COc1cc(/C=C/c2cc(O)c(C(C)=O)c(O)c2)cc2c1O[C@]1(C)CC[C@@H](O)C(C)(C)[C@H]1C2 | 4750 | 31200
COc1cccc(-c2nc(-c3ccc(NC(=O)C(C)C)cc3)[nH]c2-c2ccnc(Br)c2)c1 | 1890 | 5400
CO[C@H]1/C=C(/C)CCC[C@H](C)[C@H](O)[C@@H](C)C(=O)C(C)(C)[C@@H](O)CC(=O)O[C@@H]1/C(C)=C/c1csc(C)n1 | < 10 | 46.3
O=C(CSc1ccc(Cl)cc1)Nc1ccc(-c2nc3ccccc3s2)c(Cl)c1 | 4520 | 48500
CN1CCN(CCCn2c(=O)c3sc4ncccc4c3n3nnc(-c4ccccc4)c23)CC1 | 6840 | 13900
Fc1cc2[nH]ncc2c2c3c(c(-c4cn[nH]c4)nc12)CCCC3 | 857 | 2580
COc1cc(/C=C/C(=O)c2cc(OC)c(OC)c(OC)c2)ccc1OCc1ccccc1 | 2150 | 7980
Cc1cc(-c2ccc3nc(C4CCOCC4)n(CCOC(F)(F)F)c3c2)cn(C)c1=O | 188 | 2250
N#C/C(=N\Nc1ccc(F)cc1)C(=O)Nc1cc(-c2ccccc2)nn1-c1ccccc1 | 1460 | 6010
OC(c1cc(-c2ccc(C(F)(F)F)cc2)nc(-c2ccc(C(F)(F)F)cc2)c1)C1CCCCN1 (centres undefined) | 1470 | 2820
COc1ccc(/C=C(/C#N)n2nnc3cccc(F)c32)cc1 | 414 | 5120
Cc1cc(/C=C/c2ccc3cc(N(C)C)ccc3[n+]2C)c(C)n1-c1ccccc1 | 48.6 | 230
C=C1NC(=O)C(C(C)CC)NC(=O)C2CSCC(NC(=O)CCC(=O)O)C(=O)NC(Cc3ccccc3)C(=O)NC(C)C(=O)NC(CC(C)CC)C(=O)NC(C(=O)NC(Cc3ccccc3)C(=O)N3CCCC3C(=O)N2)C(C)OC(=O)C(CO)NC(=O)C(C(O)COC)N(C)C(=O)C(C(C)C)NC(=O)C(CC(C)CC)NC1=O (centres undefined) | < 14 | –
CCN1CCN(c2nc(C)cc(N(CCNc3ccnc4cc(Cl)ccc34)Cc3ccc4c(c3)OCO4)n2)CC1 | 1550 | 3340
COc1ccc(-c2nnc(COc3ccc(NC(=O)Nc4cc(C(F)(F)F)cc(C(F)(F)F)c4)cc3F)o2)cc1 | 1550 | 5040
CCCCCCCC(=O)SCC/C=C/[C@@H]1CC(=O)NCc2cc(ccn2)C2=N[C@@](C)(CS2)C(=O)N[C@@H](C(C)C)C(=O)O1 | 55 | > 33300
O=C1OC(O)[C@@H]2[C@H]1[C@H]1CC[C@@H]2O1 (some centres undefined) | 85900 | > 100000
CC(C)[C@H]1COC(=O)N1[C@@H]1C(=O)N([C@@H](CCC(=O)N2CCN(C3CCCC3)CC2)C(=O)N[C@@H]2CCCc3ccccc32)[C@@H]1/C=C/c1cccc(Br)c1 | 688 | 2120
C=C1C(=O)O[C@H]2[C@H]1CC/C(COC(=O)c1c[nH]c3ccccc13)=C\CC[C@@]1(C)O[C@@H]21 | 190 | 448
CCN(CC)c1ccc(-c2cc(-c3cc(OC)c(OC)c(OC)c3)nc(N3CCOCC3)c2C#N)cc1 | 2580 | > 100000
C/C(=C(/c1ccc(O)cc1)c1ccc(OCCN2CCCC2)cc1)c1ccc(Cl)cc1 | 1880 | 4110
Cn1cnc([N+](=O)[O-])c1S(=O)(=O)Oc1cccc2ccccc12 | 1850 | 3840
O=C(/C=C/c1ccc(Cl)cc1)c1ccc(Nc2ccnc3cc(Cl)ccc23)cc1 | 43100 | > 100000
OCc1ccc(-c2ccc(-c3ccc(CO)s3)o2)s1 | – | 23
Nc1ncnc2c1nnn2C1OC(CO)C(O)C1O (centres undefined) | 234 | 1260
CC[C@H](Nc1ncnc2nc[nH]c12)c1oc2ccccc2c(=O)c1-c1cccc(F)c1 | 9080 | 34400
O=c1c2sccc2n(CC2COc3ccccc3O2)c(=O)n1O (centres undefined) | 4610 | 57400
